Where two headings read alike, the source gives them in different places.
Experiments:
Assay type in all cases: cell-based
[1] = system: GS4.1 cells; test: Cytotoxicity evaluation in GS4.1 cells (Cell Titer 96 AQueous One Solution Cell Proliferation Assay); settings: cellular viability, treated as in replicon assay, read-out: HCV Replicon CC50
Description: (§1) Huh-7 cells containing HCV Coni subgenomic replicon (GS4.1 cells), (C. Seeger; Fox Chase University, Philadelphia, Pa., USA), are grown in Dulbecco's Modified Eagle Medium (DMEM) supplemented with 10% fetal bovine serum (FBS), 2 mM L-glutamine, 110 mg/L sodium pyruvate, 1× non-essential amino acids, 100 U/mL penicillin-streptomycin and 0.5 mg/mL G418 (Invitrogen). For dose-response testing, the cells are seeded in 96-well plates at 7.5×10^3 cells/well in a volume of 50 μL and incubated at 37° C./5% CO2. Three hours after plating, 50 μL of ten 2-fold serial dilutions of compounds (highest concentration, 75 μM) are added and cell cultures were incubated at 37° C./5% CO2 in the presence of 0.5% DMSO. Alternatively, compounds are tested at a single concentration of 15 μM. In all cases, Huh-7 cells lacking the HCV replicon served as negative control. The cells are incubated in the presence of compounds for 72 hours after which they were monitored for expression of the NS4A protein by enzyme-linked immunosorbent assay (ELISA). For this, the plates were then fixed for 1 min with 1:1 acetone:methanol, washed twice with phosphate-buffered saline (PBS), 0.1% Tween 20, blocked for 1 hour at room temperature with TNE buffer containing 10% FBS and then incubated for 2 h at 37° C. with the anti-NS4A mouse monoclonal antibody A-236 (ViroGen) diluted in the same buffer. After washing three times with PBS, 0.1% Tween 20, the cells are incubated 1 hour at 37° C. with anti-mouse immunoglobulin G-peroxidase conjugate in TNE, 10% FBS. After washing as described above, the reaction is developed with O-phenylenediamine (Zymed). The reaction is stopped after 30 minutes with […] and the absorbance is read at 492 nm using a Sunrise Tecan spectrophotometer. EC50 values are determined from the % inhibition versus concentration data using a sigmoidal non-linear regression analysis based on four parameters with Tecan Magellan software. When screening at a single concentration, the results are expressed as % inhibition at 15 μM. For cytotoxicity evaluation, GS4.1 cells are treated with compounds as described above and cellular viability was monitored using a Cell Titer 96 AQueous One Solution Cell Proliferation Assay (Promega). CC50 values are determined from the % cytotoxicity versus concentration data with Tecan Magellan software as described above.

[2] = system: Huh-7 cells containing HCV Coni subgenomic replicon (GS4.1 cells); test: HCV replicon assay; settings: GS4.1 cells, 72 hours incubation, NS4A expression by ELISA, read-out: HCV Replicon EC50
Description: as §1
Compounds presented in the table below were assayed according to the replicon assay described above.

[3] = Cytotoxicity evaluation in GS4.1 cells (Cell Titer 96 AQueous One Solution Cell Proliferation Assay); settings: human, cellular viability, treated as in replicon assay, read-out: HCV Replicon CC50
Description: as §1

SMILES	CC50 [1]	EC50 [2]	CC50 at 72 h [3]	EC50 ([2]; Hepatitis C virus, Huh-7, 72 h)
CCOC(=O)[C@@H](CC(C)C)NP(=O)(N[C@H](CC(C)C)C(=O)OCC)OC[C@H]1O[C@@H](n2cnc3c(OC)nc(N)nc32)C(C)(O)C1O (some centres unmarked) [Compound 66]	≤ 75 µM	0.1 to 1 µM		
CCOC(=O)[C@@H](NP(=O)(N[C@H](C(=O)OCC)C(C)CC)OC[C@H]1O[C@@H](n2cnc3c(N4CCCC4)nc(N)nc32)C(C)(O)C1O)C(C)CC (some centres unmarked) [Compound 67]			> 75 µM	0.1 to 1 µM
CCOC(=O)[C@@H](NP(=O)(N[C@H](C(=O)OCC)C(C)C)OC[C@H]1O[C@@H](n2cnc3c(N4CCCC4)nc(N)nc32)C(C)(O)C1O)C(C)C (some centres unmarked) [Compound 68]			> 75 µM	< 0.1 µM
CCOC(=O)[C@H](Cc1ccccc1)NP(=O)(N[C@@H](Cc1ccccc1)C(=O)OCC)OC[C@H]1O[C@@H](n2cnc3c(N4CCCC4)nc(N)nc32)C(C)(O)C1O (some centres unmarked) [Compound 69]			≤ 75 µM	< 0.1 µM
CCOC(=O)C(NP(=O)(NC(C(=O)OCC)C(C)C)OC[C@H]1O[C@@H](n2cnc3c(NC4CC4)nc(N)nc32)C(C)(O)C1O)C(C)C (some centres unmarked) [Compound 70]			> 75 µM	0.1 to 1 µM
CCOC(=O)[C@H](Cc1ccccc1)NP(=O)(N[C@@H](Cc1ccccc1)C(=O)OCC)OC[C@H]1O[C@@H](n2cnc3c(N4CCOCC4)nc(N)nc32)C(C)(O)C1O (some centres unmarked) [Compound 71]			> 75 µM	< 0.1 µM
CCOC(=O)[C@@H](NP(=O)(N[C@H](C(=O)OCC)C(C)C)OC[C@H]1O[C@@H](n2cnc3c(N4CCOCC4)nc(N)nc32)C(C)(O)C1O)C(C)C (some centres unmarked) [Compound 72]			> 75 µM	0.1 to 1 µM
COc1nc(N)nc2c1ncn2[C@@H]1O[C@H](COP(N)(=O)OCCSC(=O)C(C)(C)CO)C(O)C1(C)O (some centres unmarked) [Compound 73]			> 75 µM	0.1 to 1 µM
CCOC(=O)CCNP(=O)(OCCSC(=O)C(C)(C)CO)OC[C@H]1O[C@@H](n2cnc3c(OC)nc(N)nc32)C(C)(O)C1O (some centres unmarked) [Compound 74]			> 75 µM	0.1 to 1 µM
CC(C)NP(=O)(OCCSC(=O)C(C)(C)CO)OC[C@H]1O[C@@H](n2cnc3c(NC4CC4)nc(N)nc32)C(C)(O)C1O (some centres unmarked) [Compound 75]			> 75 µM	0.1 to 1 µM
CCOC(=O)CCNP(=O)(OCCSC(=O)C(C)(C)CO)OC[C@H]1O[C@@H](n2cnc3c(NC4CC4)nc(N)nc32)C(C)(O)C1O (some centres unmarked) [Compound 76]			> 75 µM	0.1 to 1 µM
CCOC(=O)[C@@H](NP(=O)(N[C@H](C(=O)OCC)C(C)C)OC[C@H]1O[C@@H](n2cnc3c(SC)nc(N)nc32)C(C)(O)C1O)C(C)C (some centres unmarked) [Compound 77]			> 75 µM	0.1 to 1 µM
CN(N)c1nc(N)nc2c1ncn2[C@@H]1O[C@H](COP(=O)(NCc2ccccc2)OCCSC(=O)C(C)(C)CO)C(O)C1(C)O (some centres unmarked) [Compound 78]			> 75 µM	0.1 to 1 µM
CC(C)NP(=O)(OCCSC(=O)C(C)(C)CO)OC[C@H]1O[C@@H](n2cnc3c(Cl)nc(N)nc32)C(C)(O)C1O (some centres unmarked) [Compound 79]			≤ 75 µM	< 0.1 µM
CCOC(=O)[C@H](CC(C)C)NP(=O)(N[C@@H](CC(C)C)C(=O)OCC)OC[C@H]1O[C@@H](n2ccc(=O)[nH]c2=O)C(C)(O)C1O (some centres unmarked) [Compound 80]			> 75 µM	1 to 10 µM
C#CC1(F)C(O)[C@@H](COP(=O)(N[C@@H](CC(C)C)C(=O)OCC)N[C@H](CC(C)C)C(=O)OCC)O[C@H]1n1cnc2c(NC3CC3)nc(N)nc21 (some centres unmarked) [Compound 81]			≤ 75 µM	1 to 10 µM

— patent US9243025B2, “Compounds and pharmaceutical compositions for the treatment of viral infections” (Idenix Pharmaceuticals, LLC, priority 2011, dated 2016)
